Source: patent US6866857B1, “Oxalipatinum preparation packaging” (Debiopharm S.A., priority 1998, dated 2005)
“Also recorded” adds a separate entry of the source.

Experiments:
[1] = accelerated stability study of liquid oxaliplatinum solution packed in flexible bag; assay type: physicochemical; settings: for Appearance of the solution / pH / Impurities by HPLC (%) / L-OHP titre/standard (%) / Oxalic acid titre (%): 2 mg/ml solution, 40° C.
[2] = tolerance of aqueous oxaliplatinum preparations to contact with PVC-based materials; assay type: physicochemical; settings: pharmaceutical preparations in aqueous solution
[3] = 6 Months, HPLC, PA 11/PP bag, 75% RH
[4] = 12 Months, PA 11/PP bag, 75% RH
[5] = 12 Months, HPLC, PA 11/PP bag, 75% RH
[6] = Week 0, HPLC, PA 11/PP bag, 75% RH
[7] = Week 1, HPLC, PA 11/PP bag, 75% RH
[8] = Week 2, HPLC, PA 11/PP bag, 75% RH
[9] = Week 3, HPLC, PA 11/PP bag, 75% RH
[10] = Week 4, HPLC, PA 11/PP bag, 75% RH
[11] = Week 5, HPLC, PA 11/PP bag, 75% RH
[12] = Week 12, HPLC, PA 11/PP bag, 75% RH

O=C1[O][Pt]2([NH][C@@H]3CCCC[C@H]3[NH]2)[O]C1=O (relative stereo) [oxaliplatinum, cis-oxalato(trans-1-1-diaminocyclohexane) platinum(II)]
Appearance of the solution ([1]; 6 Months, PA 11/PP bag, 75% RH): Clear, | pH ([1]; 6 Months, PA 11/PP bag, 75% RH): 5.20 | Impurities by HPLC (%) [1, 3]: 0.5% | L-OHP titre/standard (%) [1, 3]: 98.9% | Oxalic acid titre (%) [1, 3]: <0.1% | Appearance of the solution [1, 4]: Clear, | pH [1, 4]: 5.30 | Impurities by HPLC (%) [1, 5]: 0.6% | L-OHP titre/standard (%) [1, 5]: 98.5% | Oxalic acid titre (%) [1, 5]: <0.1% | maximum percentage of apparent impurities ([1]; HPLC): ≤ 2% | Appearance of the solution ([1]; Week 0, 100 ml PA 11/PP bag, 75% relative humidity): Clear, | pH ([1]; Week 0, PA 11/PP bag, 75% RH): 5.56 | Impurities by HPLC (%) [1, 6]: 0.10% | L-OHP titre/standard (%) [1, 6]: 99.7% | Oxalic acid titre (%) [1, 6]: <0.1% | Appearance of the solution ([1]; Week 1, PA 11/PP bag, 75% RH): Clear, | pH ([1]; Week 1, PA 11/PP bag, 75% RH): 5.10 | Impurities by HPLC (%) [1, 7]: 0.60% | L-OHP titre/standard (%) [1, 7]: 100.1% | Oxalic acid titre (%) [1, 7]: <0.1% | Appearance of the solution ([1]; Week 2, PA 11/PP bag, 75% RH): Clear, | pH ([1]; Week 2, PA 11/PP bag, 75% RH): 5.24 | Impurities by HPLC (%) [1, 8]: 0.50% | L-OHP titre/standard (%) [1, 8]: 100.0% | Oxalic acid titre (%) [1, 8]: <0.1% | Appearance of the solution ([1]; Week 3, PA 11/PP bag, 75% RH): Clear, | pH ([1]; Week 3, PA 11/PP bag, 75% RH): 5.22 | Impurities by HPLC (%) [1, 9]: 0.50% | L-OHP titre/standard (%) [1, 9]: 100.9% | Oxalic acid titre (%) [1, 9]: <0.1% | Appearance of the solution ([1]; Week 4, PA 11/PP bag, 75% RH): Clear, | Impurities by HPLC (%) [1, 10]: 0.48% | L-OHP titre/standard (%) [1, 10]: 99.3% | Oxalic acid titre (%) [1, 10]: <0.1% | Appearance of the solution ([1]; Week 5, PA 11/PP bag, 75% RH): Clear, | pH ([1]; Week 5, PA 11/PP bag, 75% RH): 5.23 | Impurities by HPLC (%) [1, 11]: 0.45% | L-OHP titre/standard (%) [1, 11]: 97.7% | Oxalic acid titre (%) [1, 11]: <0.1% | Appearance of the solution ([1]; Week 12, PA 11/PP bag, 75% RH): Clear, | pH ([1]; Week 12, PA 11/PP bag, 75% RH): 5.35 | Impurities by HPLC (%) [1, 12]: 0.40% | L-OHP titre/standard (%) [1, 12]: 99.3% | Oxalic acid titre (%) [1, 12]: <0.1% | period of stability of the liquid solution packed in a flexible bag ([1]; liquid solution in flexible bag): stable for a period extending to more than three months, and even to more than six months; also recorded: stable for at least one year | appearance of the solution over the whole period ([1]; observed for twelve months, flexible bag): clarity and the absence of coloration | stability compared with solution packed in a glass bottle ([1]; same conditions, FIG. 6 vs FIG. 7): stability analogous | tolerance of contact with PVC-based materials [2]: cannot tolerate being in contact with PVC-based materials
